Values after ≈ are worked out from the molar mass of the structure shown. Like-named read-outs stand apart in the source and are kept apart here. Where a SMILES comes first, the peptide text is derived from it. Bridges are numbered along the chain shown (N, C = ends). [ ]: non-standard residue; d: D form. The star is where a group is joined. ξ: configuration not given here. Hexanoyl(4ξ-Me) = CCC(C)CCC(=O)*; dOrn = NCCC[C@@H](N)C(=O)O; Orn = NCCC[C@H](N)C(=O)O
Key:
E. coli ATCC 25922 [1] = settings: 10^8 c.f.u. plated on Mueller–Hinton agar at four times the MIC, 48 h, 37 °C
Procedure: (§1) E. coli ATCC 25922 was inoculated into MHB overnight at 37 °C with continuous shaking. Cells were diluted 10,000 times in MHB to about 1 × 10^6 c.f.u. mL^−1. Ten µL aliquots were drawn to a 96-well plate containing 90 µL of serially diluted brevicidine, laterocidine, and ciprofloxacin, at final concentrations of 0.5×, 1×, 1.5×, 2×, and 4× MIC. […] Plates with bacteria were incubated at 37 °C without shaking. […] This process was repeated for 30 days, and the final MIC was confirmed by the same antibacterial assay as the one described above. The experiment was performed in quadruplicate, and on each day, the sample that developed the highest resistance was measured to plot the curve. For single-step resistance, E. coli ATCC 25922 cells at 10^8 c.f.u. were plated onto Mueller–Hinton agar containing 4× MIC of brevicidine.

E. coli ATCC 25922 [2] = experiment: Resistance acquisition during serial passaging; type: cell-based, Escherichia coli; settings: subinhibitory concentrations, 30-day period, MHB, 37 °C, quadruplicate
Procedure: as §1

Saccharomyces cerevisiae = type: cell-based; settings: 24 h
E. coli = experiment: Lysis assay; type: cell-based, Escherichia coli; settings: ten times the MIC, culture OD600 = 1.0, 24 h
Procedure: An overnight culture of E. coli TOP10 cells was diluted 1:10,000 in MHB and incubated at 37 °C with agitation at 180 rpm for 2 h (early exponential). The bacteria were then challenged with brevicidine (20 μg mL^−1), laterocidine (20 μg mL^−1), or polymyxin B (10 μg mL^−1) at ten times the MIC at room temperature without shaking. An untreated sample of cells was used as a negative control. At intervals, 10 μL aliquots were removed, centrifuged at 10,000 × g for 1 min and resuspended in 1.0 mL of sterile PBS. Tenfold serially diluted suspensions were plated on MHB agar plates and incubated at 37 °C overnight. Colonies were counted and the number of c.f.u. per mL was calculated. For analysis of lysis, 300 μL of culture (OD600 = 1.0) were treated with antibiotics at ten times the MIC for 24 h. Experiments were performed in triplicate.

[3] = test system: Escherichia coli ATCC 25922; experiment: microbe, parasite or virus in culture; type: cell-based; settings: Supplementary Table 1; Ec = Escherichia coli ATCC 25922
Procedure: (§2) MIC was determined by broth microdilution according to CLSI guidelines. The test medium for most species was Mueller–Hinton broth (MHB). Bacteria were grown overnight to early stationary phase and adjusted in MHB to 5.0 × 10^5 c.f.u. mL^−1 in the wells of 96-well microtiter plates (Falcon® 96-Well Flat-Bottom Microplate, Tissue Culture-Treated), mixed with varying concentrations of test compounds and incubated at 37 °C for 24 h. Cell growth was evaluated by measuring the optical density at 595 nm (Thermo Scientific Multiskan FC multiplate photometer) (Waltham, MA, USA), and the MIC was defined as the lowest compound concentration at which no bacterial growth was observed. MHBs containing 10% fetal bovine serum (Gibco), 21 mM MgCl, or 1.0 mg mL^−1 LPS (lipopolysaccharides from E. coli O55:B5, Sigma-Aldrich) was used to test their inhibitory effects.

[4] = test system: Colistin-resistant E. coli (E. coli ATCC 25922 carrying mcr-1); experiment: MIC by broth microdilution; type: cell-based, Escherichia coli; settings: MHB, 37 °C, 24 h
Procedure: as §2

[5] = test system: Klebsiella pneumoniae NRRL-B-408; experiment: MIC by broth microdilution; type: cell-based; settings: Supplementary Table 1; Kp = Klebsiella pneumoniae NRRL-B-408
Procedure: as §2

[6] = test system: Enterobacter cloacae NRRL-B-413; experiment: MIC by broth microdilution; type: cell-based; settings: Supplementary Table 1; En = Enterobacter cloacae NRRL-B-413
Procedure: as §2

Acinetobacter baumannii = experiment: MIC by broth microdilution; type: cell-based; settings: Supplementary Table 1
Procedure: as §2

Bacillus subtilis 168 = experiment: MIC by broth microdilution; type: cell-based; settings: Supplementary Table 1; Bs = B. subtilis 168
Procedure: as §2

E. coli TOP10 cells = experiment: Bacterial growth kinetics; type: cell-based, Escherichia coli; settings: OD600 of cells exposed to antibiotics (Fig. 4: two times the MIC)
Procedure: A single fresh colony of E. coli TOP10 cells was inoculated into MHB (5 mL) and grown with shaking at 225 rpm overnight. The bacteria were diluted to 1 × 10^5 c.f.u. mL^−1 in fresh MHB, grown […] to early log-phase (OD600 = 0.15) and treated with the antibiotics of interest in the wells of a 96-well plate. Final antibiotic concentrations varied from one to eight times the MIC. The plate was then incubated at 30 °C overnight, with OD600 measurements taken every 30 s.

Candida albicans = type: cell-based; settings: 24 h

SMILES: CCC(C)CCC(=O)N[C@H](CC(N)=O)C(=O)N[C@H](Cc1ccc(O)cc1)C(=O)N[C@H](Cc1c[nH]c2ccccc12)C(=O)N[C@H](CCCN)C(=O)N[C@@H](CCCN)C(=O)NCC(=O)N[C@H](CCCN)C(=O)N[C@@H](Cc1c[nH]c2ccccc12)C(=O)N[C@@H]1C(=O)N[C@@H]([C@@H](C)CC)C(=O)NCC(=O)N[C@@H](CO)C(=O)O[C@@H]1C (stereo partly shown) [Compound 1, brevicidine] ({Hexanoyl(4ξ-Me)}-[dN][dY][dW][dOrn][Orn]G[dOrn]WTIGS; ester 9-C)
- single-step resistance (E. coli ATCC 25922 [1]): did not develop resistance
- single-step resistance (E. coli ATCC 25922 [1]; listed as brevicidine): no resistant colonies were detected
- resistance development during serial passaging (E. coli ATCC 25922 [2]): did not develop resistance
- MIC (Saccharomyces cerevisiae): >64 µg/mL
- lysis of E. coli cells (E. coli): completely lysed
- MIC, Ec [3]: 2 µg/mL (≈ 1.32 µM)
- MIC [4]: 2 µg/mL (≈ 1.32 µM)
- MIC, Kp [5]: 2 µg/mL (≈ 1.32 µM)
- MIC, En [6]: 2 µg/mL (≈ 1.32 µM)
- MIC, Ab (Acinetobacter baumannii): 16 µg/mL (≈ 10.5 µM)
- MIC, Bs (Bacillus subtilis 168): 32 µg/mL (≈ 21.1 µM)
- growth kinetics of E. coli cells exposed to compound (E. coli TOP10 cells): grew at a reduced rate for 30 min
- MIC (Candida albicans): >64 µg/mL

— PMC6095874, “Discovery of cationic nonribosomal peptides as Gram-negative antibiotics through global genome mining” (Nature Communications, 2018)
